Experimental data: US20260250318A1, “COMPOSITIONS AND METHODS FOR CROSSING THE BLOOD BRAIN BARRIER” (VOYAGER THERAPEUTICS, INC., priority 2022, published 2026)

How the values were obtained:
Details in all cases: synthetic library passage 3, intravenous, relative to wild-type AAV9
[1] = test system: brain; test: NGS fold enrichment of synthetic library (passage 3) in C57Bl/6 mice, first cross-species screen; assay type: in vivo
Description: (§1) After creation of the synthetic library with the sub-selected variants, the synthetic library was screened (passage 3) in two NHPs (2-4 years of age) and two strains of mice, BALB/c (n=3, 6-8 weeks of age) and C57Bl/6 mice (n=3, 6-8 weeks of age), in a first cross-species evolution screen. The animals were injected intravenously with the synthetic library. After a period in vivo, (e.g., 28-days) RNA was extracted from nervous tissue, e.g., brain, spinal cord, and DRG of the NHPs and the brains of mice. Following RNA recovery and RT-PCR amplification, a systematic NGS enrichment analysis was performed, and the peptides comprised within the variants were identified and the capsid enrichment ratio for each variant compared to the wild-type AAV9 control was calculated (fold enrichment relative to wild-type AAV9) (Table 9). […] All animals were dosed intravenously at […] across the screen.

[2] = test system: brain, spinal cord, and DRG of the NHPs; test: NGS fold enrichment of synthetic library (passage 3) in NHPs, first cross-species screen; assay type: in vivo, cynomolgus macaques (Macaca fascicularis)
Description: as §1

[3] = test system: brain; test: NGS fold enrichment of synthetic library (passage 3) in BALB/c mice, first cross-species screen; assay type: in vivo
Description: as §1

[4] = RNA from brain of C57Bl/6 mice, NGS
[5] = RNA from spinal cord of NHPs, NGS
[6] = RNA from brain of BALB/c mice, NGS

Sequence: GATLQVHSGQNQQT
- Fold enrichment over AAV9 in the brain of Mice (C57Bl/6) ([1]; RNA NGS, brain of C57Bl/6 mice): 0.623 fold
- Fold enrichment over AAV9 in the brain of NHPs ([2]; RNA NGS, brain of NHPs): 2.122 fold
- Fold enrichment over AAV9 in the spinal cord of NHPs ([2]; RNA NGS, spinal cord of NHPs): 2.219 fold
- Fold enrichment over AAV9 in the brain of Mice (BALB/c) ([3]; RNA NGS, brain of BALB/c mice): 0.545 fold

Sequence: GAVGHSYSGQNQQT
- Fold enrichment over AAV9 in the brain of Mice (C57Bl/6) ([1]; RNA NGS, brain of C57Bl/6 mice): 0.306 fold
- Fold enrichment over AAV9 in the brain of NHPs ([2]; RNA NGS, brain of NHPs): 1.706 fold
- Fold enrichment over AAV9 in the spinal cord of NHPs ([2]; RNA NGS, spinal cord of NHPs): 0.808 fold
- Fold enrichment over AAV9 in the brain of Mice (BALB/c) ([3]; RNA NGS, brain of BALB/c mice): 0.536 fold

Sequence: GAYGMVSSGQNQQT
- Fold enrichment over AAV9 in the brain of Mice (C57Bl/6) ([1]; RNA NGS, brain of C57Bl/6 mice): 0.732 fold
- Fold enrichment over AAV9 in the brain of NHPs ([2]; RNA NGS, brain of NHPs): 1.518 fold
- Fold enrichment over AAV9 in the spinal cord of NHPs ([2]; RNA NGS, spinal cord of NHPs): 3.469 fold
- Fold enrichment over AAV9 in the brain of Mice (BALB/c) ([3]; RNA NGS, brain of BALB/c mice): 0.773 fold

Sequence: GCTTRLNSGQNQQT
- Fold enrichment over AAV9 in the brain of Mice (C57Bl/6) [1, 4]: 0.184 fold
- Fold enrichment over AAV9 in the brain of NHPs ([2]; RNA from brain of NHPs, NGS): 1.276 fold
- Fold enrichment over AAV9 in the spinal cord of NHPs [2, 5]: 0.000 fold
- Fold enrichment over AAV9 in the brain of Mice (BALB/c) [3, 6]: 0.618 fold

Sequence: GDAGVRSSGQNQQT
- Fold enrichment over AAV9 in the brain of Mice (C57Bl/6) ([1]; RNA NGS, brain of C57Bl/6 mice): 1.033 fold
- Fold enrichment over AAV9 in the brain of NHPs ([2]; RNA NGS, brain of NHPs): 2.068 fold
- Fold enrichment over AAV9 in the spinal cord of NHPs ([2]; RNA NGS, spinal cord of NHPs): 3.918 fold
- Fold enrichment over AAV9 in the brain of Mice (BALB/c) ([3]; RNA NGS, brain of BALB/c mice): 1.193 fold

Sequence: GDMTRSSSGQNQQT
- Fold enrichment over AAV9 in the brain of Mice (C57Bl/6) ([1]; RNA NGS, brain of C57Bl/6 mice): 1.145 fold
- Fold enrichment over AAV9 in the brain of NHPs ([2]; RNA NGS, brain of NHPs): 1.075 fold
- Fold enrichment over AAV9 in the spinal cord of NHPs ([2]; RNA NGS, spinal cord of NHPs): 0.802 fold
- Fold enrichment over AAV9 in the brain of Mice (BALB/c) ([3]; RNA NGS, brain of BALB/c mice): 1.038 fold

Sequence: GDSSLRHSGQNQQT
- Fold enrichment over AAV9 in the brain of Mice (C57Bl/6) ([1]; RNA NGS, brain of C57Bl/6 mice): 0.662 fold
- Fold enrichment over AAV9 in the brain of NHPs ([2]; RNA NGS, brain of NHPs): 2.194 fold
- Fold enrichment over AAV9 in the spinal cord of NHPs ([2]; RNA NGS, spinal cord of NHPs): 0.000 fold
- Fold enrichment over AAV9 in the brain of Mice (BALB/c) ([3]; RNA NGS, brain of BALB/c mice): 0.412 fold

Sequence: GDSSSRISGQNQQT
- Fold enrichment over AAV9 in the brain of Mice (C57Bl/6) [1, 4]: 0.916 fold
- Fold enrichment over AAV9 in the brain of NHPs ([2]; RNA from brain of NHPs, NGS): 1.151 fold
- Fold enrichment over AAV9 in the spinal cord of NHPs [2, 5]: 3.787 fold
- Fold enrichment over AAV9 in the brain of Mice (BALB/c) [3, 6]: 0.348 fold

Sequence: GEKAVTSSGQNQQT
- Fold enrichment over AAV9 in the brain of Mice (C57Bl/6) [1, 4]: 0.558 fold
- Fold enrichment over AAV9 in the brain of NHPs ([2]; RNA from brain of NHPs, NGS): 1.402 fold
- Fold enrichment over AAV9 in the spinal cord of NHPs [2, 5]: 0.998 fold
- Fold enrichment over AAV9 in the brain of Mice (BALB/c) [3, 6]: 0.327 fold

Sequence: GERAFPTSGQNQQT
- Fold enrichment over AAV9 in the brain of Mice (C57Bl/6) ([1]; RNA NGS, brain of C57Bl/6 mice): 0.972 fold
- Fold enrichment over AAV9 in the brain of NHPs ([2]; RNA NGS, brain of NHPs): 1.775 fold
- Fold enrichment over AAV9 in the spinal cord of NHPs ([2]; RNA NGS, spinal cord of NHPs): 6.515 fold
- Fold enrichment over AAV9 in the brain of Mice (BALB/c) ([3]; RNA NGS, brain of BALB/c mice): 0.362 fold

Sequence: GERHTVLSGQNQQT
- Fold enrichment over AAV9 in the brain of Mice (C57Bl/6) ([1]; RNA NGS, brain of C57Bl/6 mice): 1.027 fold
- Fold enrichment over AAV9 in the brain of NHPs ([2]; RNA NGS, brain of NHPs): 3.289 fold
- Fold enrichment over AAV9 in the spinal cord of NHPs ([2]; RNA NGS, spinal cord of NHPs): 3.008 fold
- Fold enrichment over AAV9 in the brain of Mice (BALB/c) ([3]; RNA NGS, brain of BALB/c mice): 0.607 fold

Sequence: GESRAVLSGQNQQT
- Fold enrichment over AAV9 in the brain of Mice (C57Bl/6) ([1]; RNA NGS, brain of C57Bl/6 mice): 0.789 fold
- Fold enrichment over AAV9 in the brain of NHPs ([2]; RNA NGS, brain of NHPs): 1.476 fold
- Fold enrichment over AAV9 in the spinal cord of NHPs ([2]; RNA NGS, spinal cord of NHPs): 0.938 fold
- Fold enrichment over AAV9 in the brain of Mice (BALB/c) ([3]; RNA NGS, brain of BALB/c mice): 0.368 fold

Sequence: GEVSRVLSGQNQQT
- Fold enrichment over AAV9 in the brain of Mice (C57Bl/6) [1, 4]: 1.150 fold
- Fold enrichment over AAV9 in the brain of NHPs ([2]; RNA from brain of NHPs, NGS): 1.318 fold
- Fold enrichment over AAV9 in the spinal cord of NHPs [2, 5]: 0.437 fold
- Fold enrichment over AAV9 in the brain of Mice (BALB/c) [3, 6]: 0.440 fold

Sequence: GFAHQASSGQNQQT
- Fold enrichment over AAV9 in the brain of Mice (C57Bl/6) ([1]; RNA NGS, brain of C57Bl/6 mice): 1.638 fold
- Fold enrichment over AAV9 in the brain of NHPs ([2]; RNA NGS, brain of NHPs): 1.587 fold
- Fold enrichment over AAV9 in the spinal cord of NHPs ([2]; RNA NGS, spinal cord of NHPs): 1.852 fold
- Fold enrichment over AAV9 in the brain of Mice (BALB/c) ([3]; RNA NGS, brain of BALB/c mice): 1.080 fold

Sequence: GFIFPKVSGQNQQT
- Fold enrichment over AAV9 in the brain of Mice (C57Bl/6) [1, 4]: 1.764 fold
- Fold enrichment over AAV9 in the brain of NHPs ([2]; RNA from brain of NHPs, NGS): 1.237 fold
- Fold enrichment over AAV9 in the spinal cord of NHPs [2, 5]: 0.000 fold
- Fold enrichment over AAV9 in the brain of Mice (BALB/c) [3, 6]: 0.692 fold

Sequence: GFMSYKGSGQNQQT
- Fold enrichment over AAV9 in the brain of Mice (C57Bl/6) ([1]; RNA NGS, brain of C57Bl/6 mice): 1.808 fold
- Fold enrichment over AAV9 in the brain of NHPs ([2]; RNA NGS, brain of NHPs): 2.865 fold
- Fold enrichment over AAV9 in the spinal cord of NHPs ([2]; RNA NGS, spinal cord of NHPs): 0.209 fold
- Fold enrichment over AAV9 in the brain of Mice (BALB/c) ([3]; RNA NGS, brain of BALB/c mice): 0.569 fold

Sequence: GFNGSPSSGQNQQT
- Fold enrichment over AAV9 in the brain of Mice (C57Bl/6) ([1]; RNA NGS, brain of C57Bl/6 mice): 2.338 fold
- Fold enrichment over AAV9 in the brain of NHPs ([2]; RNA NGS, brain of NHPs): 2.609 fold
- Fold enrichment over AAV9 in the spinal cord of NHPs ([2]; RNA NGS, spinal cord of NHPs): 12.197 fold
- Fold enrichment over AAV9 in the brain of Mice (BALB/c) ([3]; RNA NGS, brain of BALB/c mice): 0.924 fold

Sequence: GFSSAVHSGQNQQT
- Fold enrichment over AAV9 in the brain of Mice (C57Bl/6) ([1]; RNA NGS, brain of C57Bl/6 mice): 0.218 fold
- Fold enrichment over AAV9 in the brain of NHPs ([2]; RNA NGS, brain of NHPs): 1.502 fold
- Fold enrichment over AAV9 in the spinal cord of NHPs ([2]; RNA NGS, spinal cord of NHPs): 1.234 fold
- Fold enrichment over AAV9 in the brain of Mice (BALB/c) ([3]; RNA NGS, brain of BALB/c mice): 0.210 fold

Sequence: GGAGSAHSGQNQQT
- Fold enrichment over AAV9 in the brain of Mice (C57Bl/6) ([1]; RNA NGS, brain of C57Bl/6 mice): 0.474 fold
- Fold enrichment over AAV9 in the brain of NHPs ([2]; RNA NGS, brain of NHPs): 1.003 fold
- Fold enrichment over AAV9 in the spinal cord of NHPs ([2]; RNA NGS, spinal cord of NHPs): 6.108 fold
- Fold enrichment over AAV9 in the brain of Mice (BALB/c) ([3]; RNA NGS, brain of BALB/c mice): 1.092 fold
